Source: patent US10287283B2, “Read-through compound prodrugs suppressing premature nonsense mutations” (The Regents of the University of California, priority 2014, dated 2019)
Converted amounts (≈) assume the structure as drawn. Where a name gives a salt, the structure may show the parent alone. Read-outs that look alike come from different tables or passages of the source. Each block holds one molecule with its values, some of them ahead of it.

Assays:
Aqueous solubility = type: physicochemical
Description: The solubility of selected compounds was tested and compared to that of comparative compound 5. To 5 mg of each test compound, water was slowly added initially in 0.5 mL and then 0.1 mL increments with vortexing for approximately 1 minute in between each aliquot of water addition and visually inspected for homogeneity. […] Table 1 provides the aqueous solubility of various prodrugs.

mdx mice [1] = experiment: Dystrophin expression after intramuscular injection into TA muscles; type: in vivo; conditions: for number of dystrophin positive fibers: TA muscle of mdx mice, intramuscular injection, compound 5 compared with prodrugs; for dystrophin staining in TA muscles: mdx mice, two weeks after intramuscular injection, compared to DMSO alone
Text: FIG. 8 provides plots showing dystrophin expression after intramuscular injection. Panel (A) provides plots showing dystrophin staining in TA muscles of mdx mice injected with RTC13 or its derivatives and analyzed two weeks after delivery of compounds and compared to muscles treated with DMSO alone. Dystrophin expression was evident in muscles that received the compounds but not in sham-injected muscles. […] (N=4 muscles per compound; scale bar: 50 μ ? ) Panel (B) provides plots showing the number of dystrophin positive fibers determined across the length of the muscle. […] Shown here is the average number of dystrophin positive fibers per cross-sectional area containing the highest number of positives. (N=4 muscles per compound; *: p=0.0008; **: p≤0.04). RTC13: compound 5; […]: compound 16; […]: compound 20; […]: compound 12; and […]: compound 8.

[2] = Pharmacokinetics studies after oral administration of compound 8 (tissue levels); type: in vivo; conditions: C57BL/10 mice; for level in heart: oral compound 8 at 10 mg/kg and 30 mg/kg; for level in biceps / level in gastrocnemius: oral compound 8 at 10 mg/kg
Description: (§1) FIG. 19 provides plots showing the results of pharmacokinetics studies in C57BL/10 mice after oral administration of compound 8 in gastrocnemius. The compound was administered at the indicated dosages in 6-8 weeks old C57BL/10 mice and tissues were analyzed in gastrocnemius 15 min, 30 min, 1 hr, 4 hrs, 6 hrs, and 24 hrs after gavage. Compound 8 and RTC13 (compound 5) were not detected in muscles isolated from mice that received compound 8 at a dose of 10 mg/kg. RTC13: compound 5; and 13Y: compound 8.
as §1, with “FIG. 20” for “FIG. 19”, “in biceps.” for “in gastrocnemius.”, “in biceps” for “in gastrocnemius”, “6 hrs” for “6 hrs,”
as §1, with “FIG. 21 provides plots” for “FIG. 19 provides plots”, “8 in heart. The compound” for “8 in gastrocnemius. The compound”, “analyzed in heart 15 min,” for “analyzed in gastrocnemius 15 min,”, “of 10 mg/kg and 30 mg/kg. RTC13:” for “of 10 mg/kg. RTC13:”

[3] = tested on: lymphoblastoid cell lines derived from A-T patients; conditions: each of the three types of nonsense mutations (TGA>TAA>TAG); cited from earlier work
mdx cells = conditions: cells in culture; cited from earlier work
[4] = tested on: normal termination codons; conditions: cited from earlier work
mdx mice [5] = conditions: cited from earlier work
mdx mice [6] = experiment: Dystrophin expression in muscles after oral administration for one month; type: in vivo; conditions: three times per day for one month, 30 mg/kg or 60 mg/kg
Description: FIG. 23 provides images of microscopic images obtained from muscles isolated from mdx mice after oral administration of compound 8. Compounds were administered in 6-8 weeks old mdx mice three times per day for one month at the indicated dosages. Dystrophin expression was evident in muscles that received the compounds but not in sham-injected muscles. […] 13Y: compound 8.

mdx mice [7] = experiment: Forelimb grip test after oral administration; type: in vivo; conditions: oral administration for up to one month
Text: (§2) FIG. 24 provides plots showing functional improvement in mdx mice after oral administration of compound 8 for up to one month. Panel (A) provides plots showing the forelimb grip test that was used to assess the effects of systemic administration of RTCs on muscle strength. […] (N=5 mice per treatment group; *p<0.05; **p<0.005). Panel (B) provides plots showing the results obtained using the wire test. […] (N=6 mice per treatment group; *p<0.05; **p=0.005). 13Y: compound 8.

mdx mice [8] = experiment: Wire test after oral administration; type: in vivo; conditions: oral administration for up to one month
Text: as §2

mdx mice [9] = experiment: In vitro force measurement of diaphragm muscles (eccentric contractions); type: in vivo
Description: FIG. 25 provides plots showing in vitro force measurement of diaphragm muscles of mdx mice treated with vehicle, compound 8 at a dose of 30 mg/kg or compound 8 at a dose of 60 mg/kg three times per day at intervals of 4 hrs for up to one month. Muscles isolated from untreated and treated mice muscles were subjected to a series of five eccentric contractions with a 5-min rest between contractions. Results were compared to those of wild type (C57BL/10) mice. Panel (A) provides plots showing the decrease in force (in percentage) obtaining following eccentric contractions over the course of the analyses. […] Plot (B) show the results of the decrement in force (in percentage) obtained in mice treated with compound 8. […] (N=4 mice per treatment group, *: p≤0.05; **: p≤0.03). 13Y: compound 8.

Serum chemistry analyses = type: in vivo; conditions: mdx mice; for serum levels of albumin, ALP, total bilirubin, LDH, cholesterol, total protein, and glucose: 30 or 60 mg/kg three times per day up to one month
Description: FIG. 26 provides the results of the serum chemistry analyses of mdx mice treated with vehicle, PTC 124 at a dose of 30 mg/kg, PTC 124 at a dose of 60 mg/kg, compound 8 at a dose of 30 mg/kg or compound 8 at a dose of 60 mg/kg three times per day at intervals of 4 hrs for up to one month. […] Values are expressed as mean plus or minus Standard Deviation (±SD). The symbol * indicates statistical significance compared to mdx treated with vehicle only. The symbol † indicates statistical significance compared to wild type (C57BL/10) untreated mice. (N=4 mice per treatment group; p≤0.05). 13Y: compound 8.

[10] = phase-I clinical study in cystic fibrosis; cited from earlier work
[11] = target: FLuc (firefly luciferase) reporter (Photinus pyralis, UniProt P08659); conditions: cited from earlier work
Sequence of FLuc (firefly luciferase) reporter (P08659 whole entry): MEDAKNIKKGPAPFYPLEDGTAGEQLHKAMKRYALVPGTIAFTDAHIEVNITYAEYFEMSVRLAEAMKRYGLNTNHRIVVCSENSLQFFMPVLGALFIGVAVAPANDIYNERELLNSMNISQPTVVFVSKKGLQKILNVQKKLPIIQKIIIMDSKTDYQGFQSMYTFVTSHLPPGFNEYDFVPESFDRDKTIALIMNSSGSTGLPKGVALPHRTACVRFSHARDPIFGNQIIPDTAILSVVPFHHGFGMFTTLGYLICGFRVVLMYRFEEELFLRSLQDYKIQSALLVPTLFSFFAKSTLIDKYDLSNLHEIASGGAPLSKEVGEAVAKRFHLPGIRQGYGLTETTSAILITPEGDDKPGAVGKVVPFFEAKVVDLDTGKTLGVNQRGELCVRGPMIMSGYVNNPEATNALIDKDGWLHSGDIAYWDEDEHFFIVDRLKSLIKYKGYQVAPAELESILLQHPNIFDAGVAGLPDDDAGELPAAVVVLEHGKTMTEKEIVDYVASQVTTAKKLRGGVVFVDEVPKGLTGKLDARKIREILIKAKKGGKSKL

[12] = Duchenne boys; cited from earlier work
[13] = thermodynamic from solid, water, ambient pH, room temperature, read-out: Solubility in (mg/mL) water at ambient pH, at room temperature

Molecule: CN1CCN(CC(=O)/N=C2\NC(=O)/C(=C/c3ccc(-c4ccccc4[N+](=O)[O-])o3)S2)CC1 [Compound 8, 2-(4-methylpiperazin-1-yl)-7V-[(2£′,5Z)-5-{[5-(2-nitrophenyl)furan-2-yl]methylidene}-4-oxo-1,3-thiazolidin-2-ylidene]acetamide dihydrochloride]
solubility (Aqueous solubility; [13]): 3.3 mg/mL | number of dystrophin positive fibers (mdx mice [1]): No significant differences | level in heart [2]: not detected | level in biceps [2]: not detected | level in gastrocnemius [2]: not detected | dystrophin expression in muscles (mdx mice [6]): higher levels of dystrophin expression than muscles obtained from mdx mice treated with PTC124 | muscle strength, forelimb grip test (mdx mice [7]): significant force recovery | average hanging time, wire test (mdx mice [8]): more significant than that of sham-injected mice or mice treated with PTC 124 | decrease in force (in percentage) following eccentric contractions (mdx mice [9]; 30 mg/kg and 60 mg/kg three times per day up to one month): improvement if loss of force was detected | decrement in force (in percentage) (mdx mice [9]; 60 mg/kg three times per day, compared to vehicle only): significantly lower | serum levels of albumin, ALP, total bilirubin, LDH, cholesterol, total protein, and glucose (Serum chemistry analyses): within normal range | alanine aminotransferase (ALT) (Serum chemistry analyses; compared to vehicle alone): decrease | blood urea nitrogen (BUN) (Serum chemistry analyses; compared to vehicle alone): decrease | creatinine (Serum chemistry analyses; compared to vehicle alone): decrease

Molecule: CN(C)CC(=O)/N=C1\NC(=O)/C(=C/c2ccc(-c3ccccc3[N+](=O)[O-])o2)S1 [Compound 12, (£)-N^2,N^2-dimethyl-7V-[(5Z)-5-{[5-(2-nitrophenyl)furan-2-yl]methylidene}-4-oxo-1,3-thiazolidin-2-ylidene]glycinamide hydrochloride]
solubility (Aqueous solubility; [13]): 10 mg/mL | number of dystrophin positive fibers (mdx mice [1]): No significant differences

Molecule: O=C1N/C(=N\C(=O)C2CCNCC2)S/C1=C\c1ccc(-c2ccccc2[N+](=O)[O-])o1 [Compound 16, N-[(2ii,5Z)-5-{[5-(2-nitrophenyl)furan-2-yl]methylidene}-4-oxo-1,3-thiazolidin-2-ylidene]piperidine-4-carboxamide hydrochloride]
solubility (Aqueous solubility; [13]): 0.18 mg/mL | number of dystrophin positive fibers (mdx mice [1]): compound 5 showed a significantly higher number of positive fibers

Molecule: O=C(O)c1cccc(-c2noc(-c3ccccc3F)n2)c1 [PTC124]
muscle strength, forelimb grip test (mdx mice [7]): No significant improvements | average hanging time, wire test (mdx mice [8]): No significant improvements | serum levels of albumin, ALP, total bilirubin, LDH, cholesterol, total protein, and glucose (Serum chemistry analyses): within normal range | read-through of normal termination (stop) codons [4]: does not induce ribosomal readthrough of normal stop codons | readthrough activity compared to aminoglycosides [10]: more efficient readthrough activity than aminoglycosides | tolerability [10]: generally well tolerated | effect on reporter [11]: direct effect on the FLuc (firefly luciferase) reporter | efficacy in clinical trials [12]: indeterminate efficacy

Molecule: CC(C)(C)c1ccc(O)c(N=Cc2cccc([N+](=O)[O-])c2)c1 [RTC14]
dystrophin staining in TA muscles (mdx mice [1]): Weak expression

Molecule: gentamicin
dystrophin staining in TA muscles (mdx mice [1]): Weak expression

Continued, in another order:

solubility (Aqueous solubility): low solubility | dissolution in water (Aqueous solubility; diluted to IL with water, vigorously stirred for up to 12 hr): did not appear to dissolve fully | solubility (Aqueous solubility; [13]): < 0.005 mg/mL | level in heart [2]: not detected | level in biceps [2]: not detected | level in gastrocnemius [2]: not detected
Molecule: N=C1NC(=O)/C(=C/c2ccc(-c3ccccc3[N+](=O)[O-])o2)S1 [Compound 5, (5Z)-2-imino-5-([5-(2-nitrophenyl)furan-2-yl]methylidene)-1,3-thiazolidin-4-one]
number of dystrophin positive fibers (mdx mice [1]): significantly higher number of positive fibers than muscles that received compounds 16 and 20 | activity in A-T lymphoblastoid cell lines [3]: biological activity | full-length dystrophin in mdx cells (mdx cells): restored full-length dystrophin | read-through of normal termination (stop) codons [4]: not read-through normal termination codons | Dystrophin protein detection in muscle groups (mdx mice [5]; including diaphragm and heart): detected in all muscle groups analyzed | creatine kinase (CK) levels (mdx mice [5]; marker of muscle degeneration): decrease | Dystrophin compared to PTC 124 (mdx mice [5]; mdx mice): significantly higher | muscle strength (mdx mice [5]; over mice that did not receive the RTCs): significant increase in muscle strength | dystrophin expression in skeletal muscles (mdx mice [5]; systemic administration, mdx mice): restores functional levels of dystrophin expression

solubility (Aqueous solubility; [13]): 0.1 mg/mL (≈ 226 µM)
Molecule: O=C(CN1CCOCC1)/N=C1\NC(=O)/C(=C/c2ccc(-c3ccccc3[N+](=O)[O-])o2)S1 [Compound 20, 2-(morpholin-4-yl)-7V-[(2£′,5Z)-5-{[5-(2-nitrophenyl)furan-2-yl]methylidene}-4-oxo-1,3-thiazolidin-2-ylidene] acetamide]
number of dystrophin positive fibers (mdx mice [1]): compound 5 showed a significantly higher number of positive fibers
